In US20080227732A1, “Treatment and Control of Severe Infections Including Cystic Fibrosis” (VENUS REMEDIES LIMITED, priority 2005, published 2008):

Assays:
[1] = cited from earlier work
[2] = febrile children with neutropenia, 5 to 10 days of therapy; cited from earlier work
Klebsiella = assay: Bacterial susceptibility test, disc diffusion on Müeller-Hinton Agar; format: cell-based, Klebsiella pneumoniae; details: Concentration 2.18 g
Method: (§1) This test was performed by disc diffusion test for ceftazidime and tobramycin on Müeller-Hinton Agar medium purchased from Hi Media. The medium was prepared and used as per manufacturer's instructions. Ceftazidime alone, Tobramycin alone and the combination of Ceftazidime and Tobramycin, on different micro-organisms was taken. […] For each concentration the three zones were observed i.e for combination, Ceftazidime alone and Tobramycin alone and tested for efficacy against various types of micro-organisms.

E. coli = assay: as above; format: cell-based; details: for Zone size: Concentration 1.12 g; for zone of inhibition: Escherichia coli, Concentration 560 mg
Method: as §1

MRSA = assay: as above; format: cell-based; details: for zone of inhibition: Staphylococcus aureus, MRSA, Concentration 560 mg
Method: as §1

C. albicanus = assay: as above; format: cell-based; details: Concentration 2.18 g
Method: as §1

P. aurignosa = assay: as above; format: cell-based; details: for zone of inhibition: Concentration 560 mg; for Zone size: Concentration 1.12 g
Method: as §1

Stapylococcus = assay: as above; format: cell-based, Staphylococcus (MSSA); details: Concentration 2.18 g
Method: as §1

[3] = High: C 2.0, T 0.18, I 2.18 mg/ml
[4] = Highest: C 20.0, T 1.8, I 21.8 mg/ml
[5] = Low: C 0.2, T 0.018, I 0.218 mg/ml
[6] = High: C 1.0, T 0.12, I 1.12 mg/ml
[7] = Highest: C 10.0, T 1.2, I 11.2 mg/ml
[8] = Low: C 0.1, T 0.01, I 0.112 mg/ml
[9] = Lowest: C 0.01, T 0.001, I 0.011 mg/ml
[10] = High: C 0.5, T 0.06, I 0.56 mg/ml
[11] = Highest: C 5.0, T 0.6, I 5.6 mg/ml
[12] = Low: C 0.05, T 0.006, I 0.056 mg/ml
[13] = Lowest: C 0.005, T 0.0006, I 0.0056 mg/ml
[14] = Concentration 1.12 g, High: C 1.0, T 0.12, I 1.12 mg/ml
[15] = Concentration 1.12 g, Highest: C 10.0, T 1.2, I 11.2 mg/ml
[16] = Concentration 1.12 g, Low: C 0.1, T 0.01, I 0.112 mg/ml
[17] = Concentration 1.12 g, Lowest: C 0.01, T 0.001, I 0.011 mg/ml
[18] = Concentration 2.18 g, High: C 2.0, T 0.18, I 2.18 mg/ml
[19] = Concentration 2.18 g, Highest: C 20.0, T 1.8, I 21.8 mg/ml
[20] = Lowest: C 0.02, T 0.0018, I 0.0218 mg/ml

SMILES | Zone size (Klebsiella; [3]) [mm] | Zone size (Klebsiella; [4]) [mm] | Zone size (Klebsiella; [5]) [mm] | Zone size (E. coli; [6]) [mm] | Zone size (E. coli; [7]) [mm] | Zone size (E. coli; [8]) [mm] | Zone size (E. coli; [9]) [mm] | zone of inhibition (E. coli; [10]) [mm] | zone of inhibition (E. coli; [11]) [mm] | zone of inhibition (E. coli; [12]) [mm] | zone of inhibition (E. coli; [13]) [mm] | Zone size (MRSA; [14]) [mm] | Zone size (MRSA; [15]) [mm] | Zone size (MRSA; [16]) [mm] | Zone size (MRSA; [17]) [mm] | Zone size (MRSA; [18]) [mm] | Zone size (MRSA; [19]) [mm] | zone of inhibition (MRSA; [10]) [mm] | zone of inhibition (MRSA; [11]) [mm] | zone of inhibition (MRSA; [13]) [mm] | other results
CC(C)(O/N=C(\C(=O)N[C@@H]1C(=O)N2C(C(=O)[O-])=C(C[n+]3ccccc3)CS[C@H]12)c1csc(N)n1)C(=O)O [C, Ceftazidime] | 47.47 | 51.22 | 46.30 | 42.10 | 47.34 | 35.49 | 33.34 | 42.1 | 47.3 | 35.5 | 33.3 | 12.53 | 22.39 | 0 | 0 | 27.32 | 44.93 | 12.9 | 21.2 | 0 | overall response rate in septicaemia ([1]; cancer patients): 75%; overall response rate ([1]; episodes of infection in cancer patients): 60%; patients clinically cured at the end of therapy [2]: 67%; Zone size (C. albicanus; [3]): 31.25 mm; Zone size (C. albicanus; [4]): 37.55 mm; Zone size (C. albicanus; [5]): 18.37 mm; Zone size (C. albicanus; [20]): 12.90 mm; zone of inhibition (P. aurignosa; [10]): 36 mm; zone of inhibition (P. aurignosa; [11]): 41.8 mm; zone of inhibition (P. aurignosa; [12]): 24.5 mm; zone of inhibition (P. aurignosa; [13]): 14.4 mm; Zone size (P. aurignosa; [6]): 44.10 mm; Zone size (P. aurignosa; [7]): 48.34 mm; Zone size (P. aurignosa; [8]): 32.48 mm; Zone size (P. aurignosa; [9]): 29.34 mm; Zone size (Stapylococcus; [3]): 35.76 mm; Zone size (Stapylococcus; [4]): 50.93 mm; Zone size (Stapylococcus; [5]): 22.45 mm
NC[C@H]1O[C@H](O[C@H]2[C@H](O)[C@@H](O[C@H]3O[C@H](CO)[C@@H](O)[C@H](N)[C@H]3O)[C@H](N)C[C@@H]2N)[C@H](N)C[C@@H]1O [T, Tobramycin] | 32.07 | 38.71 | 31.50 | 25.02 | 30.30 | 22.16 | 14.35 | 25 | 30.3 | 22.2 | 14.3 | 22.45 | 33.22 | 10.24 | 9.89 | 14.61 | 17.13 | 23.9 | 32.4 | 9.46 | zone of inhibition (MRSA; [12]): 11.7 mm; Zone size (C. albicanus; [3]): 26.45 mm; Zone size (C. albicanus; [4]): 35.47 mm; Zone size (C. albicanus; [5]): 15.65 mm; Zone size (C. albicanus; [20]): 0 mm; zone of inhibition (P. aurignosa; [10]): 21.2 mm; zone of inhibition (P. aurignosa; [11]): 32.1 mm; zone of inhibition (P. aurignosa; [12]): 16.7 mm; zone of inhibition (P. aurignosa; [13]): 10.9 mm; Zone size (P. aurignosa; [6]): 23.02 mm; Zone size (P. aurignosa; [7]): 30.31 mm; Zone size (P. aurignosa; [8]): 19.16 mm; Zone size (P. aurignosa; [9]): 11.35 mm; Zone size (Stapylococcus; [3]): 27.49 mm; Zone size (Stapylococcus; [4]): 36.96 mm; Zone size (Stapylococcus; [5]): 16.68 mm
